Laboratory results as given in patent US20110039721A1, “METHOD FOR PREDICTION ABOUT CARCINOGENICITY OF SUBSTANCE IN RODENT” (Chemicals Evaluation and Research Institute, priority 2007, published 2011).

Legend:
rodent = settings: in vivo; cited from earlier work
liver = settings: in vivo; cited from earlier work
[1] = test system: mRNA expressed from the genes (A) to (D) in rat liver; test: Behavior of genes (mRNA expression level, oligo-DNA microarray) in rat liver after 28-day oral administration; format: in vivo; settings: for Behavior of gene caused by administration of chemical substance, Gene No. 4846 / Behavior of gene caused by administration of chemical substance, Gene No. 2026 / Behavior of gene caused by administration of chemical substance, Gene No. 4218 / Behavior of gene caused by administration of chemical substance, Gene No. 6182 / Behavior of gene caused by administration of chemical substance, Gene No. 5600: gene group (A); for Behavior of gene caused by administration of chemical substance, Gene No. 4846: Unigene No. Rn.144554; for Behavior of gene caused by administration of chemical substance, Gene No. 2026 / Behavior of gene caused by administration of chemical substance, Gene No. 4218: Unigene No. Rn.167075; for Behavior of gene caused by administration of chemical substance, Gene No. 6182: Unigene No. Rn.5834; for Behavior of gene caused by administration of chemical substance, Gene No. 5600: Unigene No. Rn.9836; for Behavior of gene caused by administration of chemical substance, Gene No. 1494 / Behavior of gene caused by administration of chemical substance, Gene No. 2045 / Behavior of gene caused by administration of chemical substance, Gene No. 2203: gene group (B); for Behavior of gene caused by administration of chemical substance, Gene No. 1494: Unigene No. Rn.1430; for Behavior of gene caused by administration of chemical substance, Gene No. 2045: Unigene No. Rn.19329; for Behavior of gene caused by administration of chemical substance, Gene No. 2203: Unigene No. Rn.21240; for Behavior of gene caused by administration of chemical substance, Gene No. 533 / Behavior of gene caused by administration of chemical substance, Gene No. 725 / Behavior of gene caused by administration of chemical substance, Gene No. 1163 / Behavior of gene caused by administration of chemical substance, Gene No. 4973 / Behavior of gene caused by administration of chemical substance, Gene No. 4095 / Behavior of gene caused by administration of chemical substance, Gene No. 1334 / Behavior of gene caused by administration of chemical substance, Gene No. 6620 / Behavior of gene caused by administration of chemical substance, Gene No. 6303 / Behavior of gene caused by administration of chemical substance, Gene No. 5878 / Behavior of gene caused by administration of chemical substance, Gene No. 1131 / Behavior of gene caused by administration of chemical substance, Gene No. 1562 / Behavior of gene caused by administration of chemical substance, Gene No. 1741 / Behavior of gene caused by administration of chemical substance, Gene No. 893 / Behavior of gene caused by administration of chemical substance, Gene No. 6026 / Behavior of gene caused by administration of chemical substance, Gene No. 154 / Behavior of gene caused by administration of chemical substance, Gene No. 1993 / Behavior of gene caused by administration of chemical substance, Gene No. 813 / Behavior of gene caused by administration of chemical substance, Gene No. 2494 / Behavior of gene caused by administration of chemical substance, Gene No. 2546 / Behavior of gene caused by administration of chemical substance, Gene No. 3776 / Behavior of gene caused by administration of chemical substance, Gene No. 3929 / Behavior of gene caused by administration of chemical substance, Gene No. 1119 / Behavior of gene caused by administration of chemical substance, Gene No. 6742 / Behavior of gene caused by administration of chemical substance, Gene No. 5634: gene group (C); for Behavior of gene caused by administration of chemical substance, Gene No. 533: Unigene No. Rn.106184; for Behavior of gene caused by administration of chemical substance, Gene No. 725: Unigene No. Rn.108075; for Behavior of gene caused by administration of chemical substance, Gene No. 1163: Unigene No. Rn.11766; for Behavior of gene caused by administration of chemical substance, Gene No. 4973: Unigene No. Rn.118529; for Behavior of gene caused by administration of chemical substance, Gene No. 4095: Unigene No. Rn.119024; for Behavior of gene caused by administration of chemical substance, Gene No. 1334 / Behavior of gene caused by administration of chemical substance, Gene No. 6620: Unigene No. Rn.120914; for Behavior of gene caused by administration of chemical substance, Gene No. 6303: Unigene No. Rn.123063; for Behavior of gene caused by administration of chemical substance, Gene No. 5878: Unigene No. Rn.143213; for Behavior of gene caused by administration of chemical substance, Gene No. 1131: Unigene No. Rn.144946; for Behavior of gene caused by administration of chemical substance, Gene No. 1562: Unigene No. Rn.14744; for Behavior of gene caused by administration of chemical substance, Gene No. 1741: Unigene No. Rn.1647; for Behavior of gene caused by administration of chemical substance, Gene No. 893: Unigene No. Rn.164817; for Behavior of gene caused by administration of chemical substance, Gene No. 6026: Unigene No. Rn.167685; for Behavior of gene caused by administration of chemical substance, Gene No. 154: Unigene No. Rn.185941; for Behavior of gene caused by administration of chemical substance, Gene No. 1993: Unigene No. Rn.18728; for Behavior of gene caused by administration of chemical substance, Gene No. 813: Unigene No. Rn.201760; for Behavior of gene caused by administration of chemical substance, Gene No. 2494: Unigene No. Rn.23969; for Behavior of gene caused by administration of chemical substance, Gene No. 2546: Unigene No. Rn.24561; for Behavior of gene caused by administration of chemical substance, Gene No. 3776: Unigene No. Rn.43232; for Behavior of gene caused by administration of chemical substance, Gene No. 3929: Unigene No. Rn.4620; for Behavior of gene caused by administration of chemical substance, Gene No. 1119: Unigene No. Rn.9757; for Behavior of gene caused by administration of chemical substance, Gene No. 6742: Unigene No. Rn.9779; for Behavior of gene caused by administration of chemical substance, Gene No. 5634: Unigene No. Rn.9862; for Behavior of gene caused by administration of chemical substance, Gene No. 5726: gene group (D), Unigene No. Rn.9939
In short: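 Liver mRNA measured by oligo-DNA microarray after 28 days of once-daily oral gavage in 5-week-old male F344 rats (n=4 per group), with vehicle controls given equal solvent volume. Significance threshold: 1.5-fold up or down versus control, with changes opposite in direction to other carcinogens counted as not significant.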

SMILES | Carcinogenicity (rodent) | Liver carcinogenicity (liver) | Behavior of gene caused by administration of chemical substance, Gene No. 4846 [1] | Behavior of gene caused by administration of chemical substance, Gene No. 2026 [1] | Behavior of gene caused by administration of chemical substance, Gene No. 4218 [1] | Behavior of gene caused by administration of chemical substance, Gene No. 6182 [1] | Behavior of gene caused by administration of chemical substance, Gene No. 5600 [1] | Behavior of gene caused by administration of chemical substance, Gene No. 1494 [1] | Behavior of gene caused by administration of chemical substance, Gene No. 2045 [1] | Behavior of gene caused by administration of chemical substance, Gene No. 2203 [1] | Behavior of gene caused by administration of chemical substance, Gene No. 533 [1] | Behavior of gene caused by administration of chemical substance, Gene No. 725 [1] | Behavior of gene caused by administration of chemical substance, Gene No. 1163 [1] | Behavior of gene caused by administration of chemical substance, Gene No. 4973 [1] | Behavior of gene caused by administration of chemical substance, Gene No. 4095 [1] | Behavior of gene caused by administration of chemical substance, Gene No. 1334 [1] | Behavior of gene caused by administration of chemical substance, Gene No. 6620 [1] | Behavior of gene caused by administration of chemical substance, Gene No. 6303 [1] | Behavior of gene caused by administration of chemical substance, Gene No. 5878 [1] | Behavior of gene caused by administration of chemical substance, Gene No. 1131 [1] | further results
CC(O)CCl (stereo not shown) [TS079, 1-Chloro-2-propanol] | C− | Cr− | − | − | − | + | − | − | + | + | − | − | − | − | − | − | − | − | − | − | Behavior of gene caused by administration of chemical substance, Gene No. 1562 [1]: −; Behavior of gene caused by administration of chemical substance, Gene No. 1741 [1]: −; Behavior of gene caused by administration of chemical substance, Gene No. 893 [1]: −; Behavior of gene caused by administration of chemical substance, Gene No. 6026 [1]: −; Behavior of gene caused by administration of chemical substance, Gene No. 154 [1]: −; Behavior of gene caused by administration of chemical substance, Gene No. 1993 [1]: −; Behavior of gene caused by administration of chemical substance, Gene No. 813 [1]: −; Behavior of gene caused by administration of chemical substance, Gene No. 2494 [1]: −; Behavior of gene caused by administration of chemical substance, Gene No. 2546 [1]: −; Behavior of gene caused by administration of chemical substance, Gene No. 3776 [1]: −; Behavior of gene caused by administration of chemical substance, Gene No. 3929 [1]: −; Behavior of gene caused by administration of chemical substance, Gene No. 1119 [1]: −; Behavior of gene caused by administration of chemical substance, Gene No. 6742 [1]: −; Behavior of gene caused by administration of chemical substance, Gene No. 5634 [1]: −; Behavior of gene caused by administration of chemical substance, Gene No. 5726 [1]: +
O=[N+]([O-])c1cccc2ccccc12 [TS083, 1-Nitronaphthalene] | C− | Cr− | − | + | − | − | − | + | − | − | + | + | − | + | + | + | + | + | − | − | Behavior of gene caused by administration of chemical substance, Gene No. 1562 [1]: +; Behavior of gene caused by administration of chemical substance, Gene No. 1741 [1]: +; Behavior of gene caused by administration of chemical substance, Gene No. 893 [1]: +; Behavior of gene caused by administration of chemical substance, Gene No. 6026 [1]: +; Behavior of gene caused by administration of chemical substance, Gene No. 154 [1]: +; Behavior of gene caused by administration of chemical substance, Gene No. 1993 [1]: +; Behavior of gene caused by administration of chemical substance, Gene No. 813 [1]: +; Behavior of gene caused by administration of chemical substance, Gene No. 2494 [1]: −; Behavior of gene caused by administration of chemical substance, Gene No. 2546 [1]: +; Behavior of gene caused by administration of chemical substance, Gene No. 3776 [1]: +; Behavior of gene caused by administration of chemical substance, Gene No. 3929 [1]: +; Behavior of gene caused by administration of chemical substance, Gene No. 1119 [1]: +; Behavior of gene caused by administration of chemical substance, Gene No. 6742 [1]: +; Behavior of gene caused by administration of chemical substance, Gene No. 5634 [1]: −; Behavior of gene caused by administration of chemical substance, Gene No. 5726 [1]: −
O=P(OCCCl)(OCCCl)OCCCl [TS088, Tris(2-chloroethyl)phosphate] | C+ | Cr− |  |  |  |  |  |  |  |  |  |  |  |  |  |  |  |  |  |  | Behavior of gene caused by administration of chemical substance ([1]; rat, in vivo): − and +
